Laboratory results taken from patent US20070274916A1, “Method for Identifying Compounds that Affect Expression of Tryptophan Hydroxylase Isoform 2” (priority 2003, published 2007).

Assays:
Format in all cases: in vivo, mouse
[1] = test system: TPH1 mRNA; test: TPH1 mRNA levels in murine raphe slice preparation by real-time RT-PCR
From the text: Female mice (13 to 16 wks of age) were ovariectomized (C57BL/6s from Charles River; ER Knockout animals from Taconic). Animals were fed a soy-free rodent chow and allowed a minimum of one week to recuperate from surgery and shipping. […] Approximately six hours following the fourth dose, mice were deeply anesthetized with ketamine/xylazine and brains were removed from the skull, placed ventral side up in a mouse brain block on ice, and ice-cold razor blades were inserted into the block at 1 mm intervals. The caudal extent of the hypothalamus was used as an anatomical marker for the placement of the first razor blade, and 4 blades were placed in sequential slots, caudally. The four sections were examined and the two that encompassed the greatest extent of the dorsal raphe were placed in a tube containing RNALATER (Ambion, Austin, Tex.) and placed at 4° C. overnight. Brain slices were removed from RNALATER after 24 hours and stored at −80° C. in fresh tubes.
Isolation of total RNA from mouse raphe slices for real-time PCR analysis using the TAQMAN ABI PRISMS 7700 Detection System, Applied Biosystems, Foster City, Calif. was as follows. Samples were stored in RNALATER at 4° C. overnight followed by removal of RNALATER and storage at −80° C. until isolation of the total RNA (2 slices weigh 25 to 50 mg). Slices were removed from −80° C. and placed in 1.0 mL TRIZOL Reagent in FASTPREP processing tubes. Slices were homogenized with one pass at setting 6 for 30 seconds in FASTPREP 120 homogenizer using LYSING MATRIX D tubes with bead matrix followed by 20 seconds at setting 6 after all samples had been processed. Samples were set at room temperature for 5 minutes to allow for complete dissociation of nucleoprotein complexes followed by centrifugation of the samples at 12,000×g for 5 minutes at 4° C. Homogenates were transferred to 1.5 mL; microcentrifuge tubes and 100 μL BCP (Bromo-3-chloropropane) was added. Samples were vortexed for 15 seconds and set at room temperature for 2 to 3 minutes. Samples were centrifuged at 12,000×g for 15 minutes at 4° C. The aqueous layer was removed and placed in a new RNAse-free sterile 1.5 mL microcentrifuge tube. Five μL of 5 mg/μL glycogen was added to each sample and the samples were vortexed. Five hundred μL of isopropanol was added to each sample. The samples were vortexed for 15 seconds, set at room temperature 10 minutes, followed by centrifugation at 12,000×g for 15 minutes at 4° C. Supernatants were decanted and pellets washed with 500 μL ice cold 75% ethanol. Samples were centrifuged at 12,000×g for 15 minutes at 4° C., ethanol decanted, and pellets air dried for 10 minutes. Pellets were resuspended in 30 μL prewarmed RNASECURE (60° C.), and heated at 60° C. for 10 min. Samples were stored at −80° C. until DNAse treatment and cDNA synthesis.
DNase treatment and cDNA preparation with wt mouse raphe slice total RNA for TAQMAN analysis. DNase treatment using DNA-free kit (Ambion). Five μg of the total RNA sample was aliquotted to each well of a 96 well plate. An 1× DNase I solution was added to each sample (DNase I buffer, DNase I, H2O). Reactions were mixed and incubated at 37° C. for 30 minutes. Reactions were inactivated by addition of DNase inactivation reagent beads, mixed well at room temperature for 3 minutes and centrifuged at 2,500 RPM for 1 minutes at 4° C. (25 μL reactions were run and inactivated with 1/10 volume of inactivation reagent).
Reverse Transcription. A 10 μL of the DNase I-treated total RNA was added to 40 μL of 1× reverse transcription reaction mix (DEPC treated H2O, RT buffer, MgCl2, dNTP mix, random hexamers, RNase inhibitor, and MULTISCRIBE RT) and incubated at 25° C. for 10 minutes, 48° C. for 30 minutes, and 95° C. for 5 minutes. Reverse transcription was halted by the addition of EDTA. Samples were transferred to a storage plate and stored at −20° C. […]

[2] = test system: TPH1 mRNA; test: TPH1 mRNA in murine DRN by in situ hybridization histochemistry (TPH1-892 antisense riboprobe); conditions: 0.2 mpk s.c. once daily for four days; ovariectomized mice; FIG. 5A
[3] = test system: TPH2 mRNA; test: TPH2 mRNA in murine DRN by in situ hybridization histochemistry; conditions: for reduction of TPH2 mRNA levels in DRN (densitometry): ovariectomized female mice, FIG. 13B
[4] = Uterine weight of ovariectomized female mice; conditions: FIG. 12
[5] = test system: TPH1 mRNA; test: TPH1 message levels in ER-β knockout mice
Protocol: Female mice (13 to 16 wks of age) were ovariectomized (C57BL/6s from Charles River; ER Knockout animals from Taconic). Animals were fed a soy-free rodent chow and allowed a minimum of one week to recuperate from surgery and shipping. Mice were dosed subcutaneously in the morning (once daily for 4 days) with 0.1 cc of vehicle (sesame oil) or compound (3, 10, or 20 mpk dexamethasone, RU486, estradiol, or prednisolone as indicated). Approximately six hours following the fourth dose, mice were deeply anesthetized with ketamine/xylazine and brains were removed from the skull, placed ventral side up in a mouse brain block on ice, and ice-cold razor blades were inserted into the block at 1 mm intervals. The caudal extent of the hypothalamus was used as an anatomical marker for the placement of the first razor blade, and 4 blades were placed in sequential slots, caudally. The four sections were examined and the two that encompassed the greatest extent of the dorsal raphe were placed in a tube containing RNALATER (Ambion, Austin, Tex.) and placed at 4° C. overnight. Brain slices were removed from RNALATER after 24 hours and stored at −80° C. in fresh tubes.

In the case of C[C@]12CC[C@@H]3c4ccc(O)cc4CC[C@H]3[C@@H]1CC[C@@H]2O [17β-estradiol], the “TPH1 mRNA induction in raphe slice” value ([1]; 0.2 mpk s.c. once daily for four days, ovariectomized mice, FIG. 6) is reported as 1.8 fold, the “effect on TPH1 mRNA in the DRN” value ([1]; male and female mice, data not shown) is reported as “induces” and the “TPH1 mRNA induction in the DRN” value [2] is reported as 3 fold. For the same compound, the “effect on TPH2 mRNA in the DRN” value ([3]; 0.2 mpk s.c. once daily for four days, ovariectomized mice, TPH2c riboprobe, FIG. 5B) was “no apparent effect”, the “uterine weight measurements” value [4] was “dramatically induced” and the “effect on TPH1 message levels” value [5] was “no effect”.
With C[C@@H]1C[C@H]2[C@@H]3CCC4=CC(=O)C=C[C@]4(C)[C@@]3(F)[C@@H](O)C[C@]2(C)[C@@]1(O)C(=O)CO [dexamethasone] the “effect on TPH1 mRNA levels” value ([1]; 3 mpk s.c., ovariectomized mice, FIG. 6) was “no effect”, the “reduction of TPH2 mRNA levels in DRN (densitometry)” value ([3]; 3 mg/kg s.c. once daily for four days) was 28% and the “reduction of TPH2 mRNA levels in DRN (densitometry)” value ([3]; 10 mg/kg s.c. once daily for four days) was 36%.
In the case of CC#C[C@]1(O)CC[C@H]2[C@@H]3CCC4=CC(=O)CCC4=C3[C@@H](c3ccc(N(C)C)cc3)C[C@@]21C [mifepristone], the “change of TPH1 mRNA levels in response to treatment” value ([1]; murine raphe slice preparations, dose not stated, FIG. 6) is reported as “no detectable change”.
